Measurements reported in patent US12213979B2, “Biomarkers of methotrexate-induced immune tolerance” (Genzyme Corporation, priority 2017, dated 2025).
Values belong to the compound of their own block, whether it stands above or below them.

Columns and labels:
[1] = tested on: proteins of erythropoiesis related pathways (transferrin receptor 1, transferrin); assay: LC/MS protein mass spectrometry of spleen of treated mice; format: in vivo; settings: day 7, rhGAA with vs without transient low-dose methotrexate
Procedure: (§1) C57BL/6 (Jackson Laboratory) or C57BL/6NTac (Taconic Biosciences, Inc.) female mice between S and 12 weeks of age were housed and maintained in accordance with the Guide for the Care and Use of Laboratory Animals, under the American Association for Accreditation of Laboratory Animal Care. The Institutional Animal Care and Use Committee approved all animal procedures. […] Subsequent weekly doses of rhGAA (up to 16 weeks) were given 15 minutes after prophylactic intraperitoneal administration of 30 mg/kg diphenhydramine (West-ward Pharmaceutical). The vehicle control or formulation buffer (FB) for rhGAA. was administered similarly to reconstituted rhGAA. Blood was collected by retro-orbital Heeds from anesthetized mice or by terminal bleeds into EDTA anticoagulant Capiject micro collection tubes (Terumo) on wet ice. […]
Blood was collected by terminal retro-orbital bleeds as described above followed by separation of plasma and PBC by centrifugation. […] Data was analyzed by Progenesis QI for Proteomics (Nonlinear Dynamics) for peak detection. […] Protein quantitation was performed through Progenesis QI for Proteomics. Fold change and p-values were calculated from the average normalized protein abundance data for each experimental group. […] Data were analyzed for enrichment scores in GO processes and other biological categories in MetaCore (Thomson Reuters).

[2] = tested on: erythroid ankyrin and glycophorin C; assay: Tissue mass spectrometry imaging (tMSI) of spleen; format: in vivo, mice; settings: 7 days after rhGAA initiation, methotrexate given together with rhGAA or FB
Procedure: Fresh spleen samples for tMSI were collected in 10% gelatin (Alfa Aesar catalog J62699), frozen en bloc, cut into […] sections, and deposited on indium tin oxide ([…]) glass slides. ITO glass slides were coated with matrix-assisted laser desorption/ionization (MALDI) matrix (α-cyano-4-hydroxycinnamic acid) for tMSI. Mass spectrometry imaging was performed with AB Sciex 4800 MALDI-TOF/TOF, Autoflex MALDI-TOF/TOF and 7T SolariX MALDI-FTICR mass spectrometers. The imaging data sets were analyzed with TissueView, flexlmaging, or Multimaging 1.1 (ImaBiotech).

anti-rhGAA IgG antibody [3] = settings: historical data; rhGAA with transient low-dose methotrexate ITI regimen vs rhGAA alone; cited from earlier work
[4] = tested on: total RBCs (Ter-119+) and immature, nucleated RBCs (Ter-119+CD71+); assay: Flow cytometry of erythroid cells in bone marrow; format: in vivo, mice
Procedure: (§2) C57BL/6 (Jackson Laboratory) or C57BL/6NTac (Taconic Biosciences, Inc.) female mice between S and 12 weeks of age were housed and maintained in accordance with the Guide for the Care and Use of Laboratory Animals, under the American Association for Accreditation of Laboratory Animal Care. The Institutional Animal Care and Use Committee approved all animal procedures. […] Subsequent weekly doses of rhGAA (up to 16 weeks) were given 15 minutes after prophylactic intraperitoneal administration of 30 mg/kg diphenhydramine (West-ward Pharmaceutical). The vehicle control or formulation buffer (FB) for rhGAA. was administered similarly to reconstituted rhGAA. Blood was collected by retro-orbital Heeds from anesthetized mice or by terminal bleeds into EDTA anticoagulant Capiject micro collection tubes (Terumo) on wet ice. Spleens were prepared into single-cell suspension between glass slides with or without RBC lysis. Bone marrow was collected from a single femur on wet ice.
(§3) Anti-mouse antibodies used for flow cytometry include BioLegend antibodies PE-Ter-119 (catalog 116208), PerCP-Cy5.5-CD71 (catalog 113816), PE-Cy7-IgM (catalog 406516), Pacific Blue (PB)-CD86 (catalog 105022) and allophycocyanin-CD45 (catalog 103116). Antibodies from BD Biosciences include FITC-CD44 (catalog 553133), allophycocyanin-CD3 (catalog 550035), allophycocyanin-CD19 or allophycocyanin-Cy7-CD19 (catalog 557655 and 550992), FITC-CD1d (catalog 553843), FITC-CD23 (catalog 553138) and allophycocyanin-Cy7-CD3, (catalog 557596). Live/dead discrimination was determined by staining with BioLegend Zombie Aqua Fixable Visability Kit. Samples were run on a BD FACS Canto II (BD Biosciences) and acquired with BD FACSDiva software. Cytometry data was analyzed on Floyd( )software version 10 (FlowJo, LLC). Absolute numbers of cell population were calculated from CountBright Absolute Counting Beads (ThermoFisher Scientific). Cell types assessed include total RBCs (Ter-119^+), immature, nucleated RBCs (Ter-119^+, CD71^+), mature RBCs (Ter-119^+, […]), proerythrohlasts (Ter-119^intermediate, CD44^high), basophilic erythroblasts (Ter-119^+, CD44^highFSC^high), polychromatic erythroblasts (Ter-119^+, CD44^intermediateFSC^intermediate), orthochromatic erythroblasts and reticulocytes (Ter-119^+, CD44^intermediateFSC^low), mature red blood cells (Ter-119^+, CD44^lowFSC^low), total activated B cells (CD19^+CD86^+), activated follicular B cells (CD19^+, IgM^low/high CD23^+, CD86^+), activated marginal zone B cells (CD19^+, IgM^high CD23^−, CD86^+), and B10 regulatory B cells (CD19^+, CD1d^highCD5^+) (Allman et. al., 2004: Chen et. al., 2009; Koulnis et. al., 2011; Joly et. al., 2014).

[5] = Spleen weight and spleen cellularity; format: in vivo, mice; settings: day 7; rhGAA concurrent with a single cycle of low-dose methotrexate vs rhGAA alone
Procedure: as §1
Anti-mouse antibodies used for flow cytometry include BioLegend antibodies PE-Ter-119 (catalog 116208), PerCP-Cy5.5-CD71 (catalog 113816), PE-Cy7-IgM (catalog 406516), Pacific Blue (PB)-CD86 (catalog 105022) and allophycocyanin-CD45 (catalog 103116). […] Live/dead discrimination was determined by staining with BioLegend Zombie Aqua Fixable Visability Kit. […] Cytometry data was analyzed on Floyd( )software version 10 (FlowJo, LLC). Absolute numbers of cell population were calculated from CountBright Absolute Counting Beads (ThermoFisher Scientific). […]

[6] = tested on: genes associated with erythropoiesis; assay: RNA-sequencing of spleen and PBMC's of treated mice; format: in vivo; settings: for transcriptional signatures of erythropoiesis: day 7 after rhGAA initiation, rhGAA in conjunction with low-dose methotrexate
Procedure: Animals were sacrificed on day 7 after rhGAA initiation. Blood was collected by terminal retro-orbital bleeds as described above. Whole blood diluted 1 part in 2 with PBS was layered over Ficoll for the separation of peripheral blood mononuclear cells (PBMC's). Spleens were prepared into single-cell suspension between glass slides. Samples were treated for RBC lysis (BD Pharm Lyse). […] The RNA integrity number (RIN) was evaluated. on an Agilent 2100 bioanalyzer with the RNA 6000 nano kit (Agilent) or RNA 6000 pica kit (Agilent). RNA amplification was performed with the SMARTER™ PCR cDNA Synthesis Kit (Clonetech). Detection of sequencing fragments was performed on the Illumina HiSeq2000 with Illumina sequencing kits. RNA-seq data sets were filtered to remove adaptors and low-quality, reads and assessed for differential expression with a fold change of 2 and p value≤0.05. Differentially expressed genes were annotated and examined through NextBio biological data mining software (Illumina).

[7] = tested on: total RBCs (Ter-119+) and immature, nucleated RBCs (Ter-119+CD71+); assay: Flow cytometry of erythroid cells in spleen; format: in vivo, mice
Procedure: as §2, §3

[8] = tested on: total RBCs (Ter-119+) and immature, nucleated RBCs (Ter-119+CD71+); assay: Flow cytometry of erythroid cells in blood; format: in vivo, mice
Procedure: as §2, §3

anti-rhGAA IgG antibody [9] = assay: Serum anti-rhGAA antibody titers by ELISA, dosed control mice; format: in vivo; settings: high outlier not removed (data not shown)
Procedure: as §2
Quantitation of anti-rhGAA antibody titers from mouse serum was measured by ELBA as previously described (holy, Martin et. al. 2014). […] The reaction was stopped by addition of 1 N HCl and absorbance was immediately measured at 450/650 nm on a SpectraMax M2 (Molecular Devices). End-point titers were derived from the reciprocal of the sample dilution resulting in an absorbance value of 0.2.

[10] = Hematology: CBC and reticulocyte count on Sysmex XT2000iV; format: in vivo, mice; settings: blood; 7 days after rhGAA initiation; groups with transient low-dose methotrexate (rhGAA or FB)
Procedure: as §2
Samples were collected by retro-orbital bleed into EDTA anticoagulant Capiject micro collection tubes as described above and stored at 2-8° C. for no longer than 72 hours. CBC, WBC differential analysis and reticulocyte count were performed on Sysmex XT2000iV (Sysmex). Histology, immunohistochemistry (IHC)

[11] = day 4, CD44/FSC gating, with rhGAA vs rhGAA alone
[12] = day 4, with rhGAA vs rhGAA alone
[13] = day 5, with rhGAA vs rhGAA alone
[14] = day 7, CD44/FSC gating, with rhGAA vs rhGAA alone
[15] = day 7 and 9, with rhGAA vs rhGAA alone
[16] = day 9, CD44/FSC gating, with rhGAA vs rhGAA alone
[17] = day 2, CD44/FSC gating, with rhGAA vs rhGAA alone
[18] = day 2, with rhGAA vs rhGAA alone
[19] = day 7, with rhGAA vs rhGAA alone
[20] = day 9, with rhGAA vs rhGAA alone

transferrin protein level [1]: upregulation
transferrin receptor 1 protein level [1]: upregulation
Compound: CN(Cc1cnc2nc(N)nc(N)c2n1)c1ccc(C(=O)N[C@@H](CCC(=O)O)C(=O)O)cc1 [methotrexate]
erythroid ankyrin signal in 10 μM spleen sections [2]: diminished
glycophorin C signal in 10 μM spleen sections [2]: diminished
rhGAA titers and AUC (anti-rhGAA IgG antibody [3]): significantly reduced
all stages of early erythroid cells [4, 11]: significant depletion
mature RBCs [4, 11]: no statistically significant differences
immature, nucleated RBCs [4, 12]: significantly reduced
total RBCs [4, 12]: no Differences
all erythroid cell stages, including early and mature RBCs ([4]; day 5, CD44/FSC gating, with rhGAA vs rhGAA alone): Depletion
immature, nucleated RBCs [4, 13]: significantly reduced
total RBCs [4, 13]: significantly reduced
mature RBCs [4, 14]: significantly reduced
proerythroblasts and polychromatic erythroblasts [4, 14]: small but significant enrichment
immature, nucleated RBCs [4, 15]: no differences
total RBCs [4, 15]: no differences
mature RBCs [4, 16]: no differences
proerythroblasts and polychromatic erythroblasts [4, 16]: small but significant enrichment
spleen cellularity by flow cytometry [5]: significantly greater
spleen weight [5]: significantly enlarged
transcriptional signatures of erythropoiesis ([6]; PBMC's): upregulation of transcriptional signatures of erythropoiesis
TfR1 in the transcriptional data set ([6]; day 7, rhGAA and low-dose methotrexate vs rhGAA alone): upregulation
transcriptional signatures of erythropoiesis ([6]; spleen): upregulation of transcriptional signatures of erythropoiesis
day of peak enrichment of immature, nucleated RBCs [7]: 7 days
time to significant reduction in immature, nucleated RBCs and mature RBCs ([7]; after the first administration of low-dose methotrexate): ≤ 24 h
all stages of early erythroid cells (proerythroblasts, basophilic, polychromatic, orthochromatic erythroblasts and reticulocytes) [7, 17]: significantly diminished
mature RBCs [7, 17]: significantly reduced
immature, nucleated RBCs (Ter-119+CD71+) [7, 18]: nearly complete reduction
total erythroid cells (Ter-119+) [7, 18]: significant reduction
erythroid cells, difference between groups ([7]; day 6, with rhGAA vs rhGAA alone): No differences
mature RBCs [7, 14]: no differences
proerythroblasts, basophilic, polychromatic and orthochromatic erythroblasts and reticulocytes [7, 14]: significant enrichment
immature, nucleated RBCs (Ter-119+CD71+) [7, 19]: significant expansion
total erythroid cells (Ter-119+) [7, 19]: large and significant enrichment
immature, nucleated RBCs (Ter-119+CD71+) [7, 20]: smaller but significant enrichment
total erythroid cells (Ter-119+) [7, 20]: smaller but significant enrichment
erythroid response ([7]; transient low-dose methotrexate alone (with FB)): mimicked that of the group treated with transient low-dose methotrexate together with rhGAA
basophilic erythroblasts, orthochromatic erythroblasts, reticulocytes and mature red blood cells [8, 17]: small but significant reduction
immature, nucleated RBCs [8, 18]: significant depletion
total RBCs [8, 18]: significant depletion
immature, nucleated RBCs [8, 12]: nearly absent
immature, nucleated RBCs [8, 14]: no changes
mature RBCs [8, 14]: significant reduction
total RBCs [8, 19]: significantly reduced
immature, nucleated RBCs ([8]; day 7, with rhGAA vs rhGAA alone, Ter-119/CD71 gating): significantly enriched
immature, nucleated RBCs [8, 20]: significantly enriched
total RBCs [8, 20]: significantly enriched
immature, nucleated RBCs ([8]; day 14, with rhGAA vs rhGAA alone): small but significant enrichment
enrichment of immature, nucleated RBCs ([8]; day 28, with rhGAA vs rhGAA alone): absent
total RBCs ([8]; methotrexate alone vs vehicle control): no observed differences
rhGAA titers and AUC, difference between dosed control groups (anti-rhGAA IgG antibody [9]): no differences
Hemoglobin content [10]: significantly reduced
Total RBC numbers (CBC) [10]: significantly reduced
frequency and numbers of mature reticulocytes [10]: no observed differences
frequency of the immature reticulocyte fraction (IRF) [10]: significantly enriched
hematocrit [10]: significantly reduced

Compound: rhGAA: recombinant human acid-α-glucosidase, enzyme replacement therapy used to treat Pompe disease
erythroid ankyrin signal in 10 μM spleen sections [2]: evenly distributed across the spleen
glycophorin C signal in 10 μM spleen sections [2]: evenly distributed across the spleen
